Assay results as given in patent publication US20100144790A1, “Use of Thalidomide for Alzheimers Disease Treatment and Prevention” (priority 2008, published 2010).
“Also recorded” adds a separate entry of the source.

Experiments:
[1] = target: T1, BACE1 (Homo sapiens, UniProt P56817); test: BACE1 enzymatic activity of AD brain crude extracts with caspase inhibitor; format: biochemical; conditions: AD brain enzymatic crude extracts incubated with the caspase inhibitor
T1 construct: from tissue; host or cells: post-mortem brain of sporadic AD patients (temporal cortex / hippocampus samples)
Text: BACE1 enzymatic activity level increased in brains of AD patients. Fluorescent transfer peptides bearing the APP wild-type peptide (APPwt) BACE1 cleavage site (KTEEISEVKMDAE) or APP Swedish mutation (APPsw) BACE1 cleavage site ([…]) were used to test BACE1 enzymatic activity. These peptides were also labeled with methoxycoumarin acetic acid (MCA) and dinitrophenyl (DNP). As a positive control, we transiently transfected BACE1 cDNA or empty vector into HEK293 cells, and observed high-intensity fluorescence with BACE1-transfected cells (FIG. 2A). Enzymatic activity, represented by the fluorescent intensity of APPwt and APPsw fragments, increased in AD brain samples compared with ND samples (FIG. 2A). Further, more APPsw fragment than the APPwt fragment was cleaved by crude extracts from AD brain (FIG. 2A).

[2] = test system: Aβ production; test: Aβ production in Thalidomide-treated APP23 mice; format: in vivo, mouse; conditions: Thalidomide 100 mg/kg/day i.p.
Procedure: (§1) Thalidomide is an effective BACE1 inhibitor. The Thalidomide used to test effectiveness was ordered from Sigma, T144, 1.0 gram. The Thalidomide dose was 100 mg/kg/day. The application of Thalidomide to the mice born by the same mother was during the period from 9 months old to 12 months old. The preparation of Thalidomide was at first to be dissolved in DMSO and then diluted with saline. The injection into peritoneal cavity was performed once a day for 3 months. In general, the average weight of the mice was 30 grams. The volume of injection was 100 mg/kg/day×0.03 Kg/mouse=3 mg/mouse/day (if 10 mg/ml of Thalidomide, then 300 ul/mouse/day). […] The amyloid plaque number was 84.6/section in untreated control APP23 mice, where as there was only 3.91/section in the Thalidomide-treated APP23 mice. Use of Thalidomide in the transgenic mice reduced Aβ plaque formation and Aβ production, which is correlated to the reduced BACE1 enzymatic activity and protein level. […]
APP23 and wild-type mice (n=10 per group) were killed at 12 and 24 mo of age, and one hemisphere of the brain was homogenized in homogenization buffer (250 mM sucrose, 20 mM Tris-HCl, pH 7.4, 1 mM EDTA, and 1 mM EGTA). […] Protein concentration was measured by protein assay (Bio-Rad Laboratories). […] Aβ40 and Aβ42 were measured with an Aβ40 and Aβ42 ELISA kit (Biosource International). […]

[3] = cited from earlier work
[4] = test system: APP23 transgenic mice; test: Aβ-related memory deficits in Thalidomide-treated APP23 mice; format: in vivo, mouse; conditions: Thalidomide 100 mg/kg/day i.p.
Procedure: The Thalidomide used to test effectiveness was ordered from Sigma, T144, 1.0 gram. […] The application of Thalidomide to the mice born by the same mother was during the period from 9 months old to 12 months old. The preparation of Thalidomide was at first to be dissolved in DMSO and then diluted with saline. The injection into peritoneal cavity was performed once a day for 3 months. In general, the average weight of the mice was 30 grams. […] The Hole-board memory task was used to measure a mouse's ability to remember which one out of four equidistant holes was baited with food. Two photobeam apparatuses were used with a hole board for assessing directed exploration in mice for behavioral tests. A tested mouse (n=10 for each group) was placed in the center of the hole-board and the number of nose pokes was automatically registered for 5 min. […] The number of head dips, time spent head-dipping, and the number of rearings was recorded. A comprehensive cognitive performance was determined by calculating the mean number of correct pokes per trial that mouse made each day. Cognition was expressed as the percentage of correct pokes. The measurements in the hole-board test were analyzed by unpaired t test. […] A recognition index was calculated for each mouse, expressed as the ratio (100TB)×(TA+TB), where TA and TB are the time spent during the second trial on subject A and subject B, respectively.

[5] = test system: APP23 transgenic mice; test: Neuronal loss in Thalidomide-treated APP23 mice; format: in vivo, mouse; conditions: Thalidomide 100 mg/kg/day i.p.
Procedure: as §1
(§2) Quantitation of immunoreactive structures 30-μm serial sagittal sections through the entire rostrocaudal extent of the hippocampus were cut on a cryostat. […] For each section, we delineated a 400-μm^2 area in CA1 and in the entorhinal cortex and counted all NeuN-immunoreactive cells within that 400-μm^2 box. The mean sum of neurons was counted per animal (n=10). […] We also measured the diameter of each counted plaque. […]

[6] = test system: Aβ deposition in the brain of APP23 mice; test: Aβ plaque number by 6E10 immunostaining in APP23 mice after Thalidomide injection; format: in vivo, mouse; conditions: Thalidomide 100 mg/kg
Procedure: as §1, §2

[7] = test system: BACE1; test: BACE1 protein level in Thalidomide-treated APP23 mice; format: in vivo, mouse; conditions: Thalidomide 100 mg/kg/day i.p.
Procedure: as §1, with “level. Thus Thalidomide can decrease CSF BACE1 and CSF Aβ in AD and MCI patients.” for “level.”
One BACE1 ELISA used a combination of a highly specific anti-BACE1 polyclonal antibody SECB2 as a capture antibody and biotinylated anti-BACE1 polyclonal antibody SECB1 as a detection antibody. […] The concentration of BACE1 will be calculated from the standard curve and expressed as μg/ml.

[8] = target: T2, BACE1 (Mus musculus, UniProt P56818); test: BACE1 enzymatic activity in frontal cortex crude extracts of Thalidomide-treated APP23 mice (fluorescent-labeled APP peptide); format: in vivo; conditions: Thalidomide 100 mg/kg
T2 construct: the frontal cortices of 12-months old APP23 transgenic mice after Thalidomide treatment with doses of 100 mg/kg for one month were obtained for the enzymatic crude extracts; from tissue; host or cells: frontal cortex / brain homogenate of APP23 transgenic mice (C57BL/6 background)
Procedure: Thalidomide is an effective BACE1 inhibitor. The Thalidomide used to test effectiveness was ordered from Sigma, T144, 1.0 gram. The Thalidomide dose was 100 mg/kg/day. The application of Thalidomide to the mice born by the same mother was during the period from 9 months old to 12 months old. The preparation of Thalidomide was at first to be dissolved in DMSO and then diluted with saline. The injection into peritoneal cavity was performed once a day for 3 months. In general, the average weight of the mice was 30 grams. The volume of injection was 100 mg/kg/day×0.03 Kg/mouse=3 mg/mouse/day (if 10 mg/ml of Thalidomide, then 300 ul/mouse/day). […]
BACE1 enzymatic activity was measured by using an aliquot of brain homogenate from APP23 and the wild-type mice. […] An equal amount of protein was mixed with 100 μl of substrate, and fluorescence intensity was measured with a microplate reader (BioTek) at an excitation wavelength of 320 nm and an emission wavelength of 390 nm.
To evaluate the BACE1 enzymatic activity level under the impact of Thalidomide, the frontal cortices of 12-months old APP23 transgenic mice after Thalidomide treatment with doses of 100 mg/kg for one month were obtained for the enzymatic crude extracts. […] The specific fluorescence was detected when labeled APPwt or APPsw peptides were cleaved by BACE1. […]

T2 sequence (P56818 46-501): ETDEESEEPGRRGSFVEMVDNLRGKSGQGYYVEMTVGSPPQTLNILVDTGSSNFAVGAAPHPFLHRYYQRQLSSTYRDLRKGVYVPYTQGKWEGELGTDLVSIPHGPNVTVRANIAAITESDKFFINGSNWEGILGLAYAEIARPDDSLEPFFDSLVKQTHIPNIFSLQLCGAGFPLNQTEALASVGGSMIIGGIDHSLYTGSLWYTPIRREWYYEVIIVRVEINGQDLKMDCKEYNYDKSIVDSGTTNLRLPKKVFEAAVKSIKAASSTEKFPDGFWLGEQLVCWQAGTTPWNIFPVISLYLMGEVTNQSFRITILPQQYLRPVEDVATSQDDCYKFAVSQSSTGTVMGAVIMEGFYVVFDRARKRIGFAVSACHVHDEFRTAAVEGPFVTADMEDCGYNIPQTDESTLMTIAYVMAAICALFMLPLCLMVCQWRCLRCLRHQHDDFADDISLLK
T1 sequence (P56817 46-501): as the sequence (P56818 46-501) above, with S6P, I162V, I165L, T180S, A182V, V340I, A393L, H443Q counted along it

Row | effect on BACE1 enzymatic activity assay (in words) [1] | Compound | Aβ production (in words) [2] | tolerability of regimen (in words) ([3]; 400 mg Thalidomide, non-elderly subjects with other conditions, without dose-related, severe or serious adverse events) | maximum tolerable doses ([3]; human, in vivo) | Aβ-related memory deficits (in words) [4] | neuronal loss (in words) [5] | Aβ plaque number ([6]; 12 months of age, frontal cortex, 6E10 immunostaining, untreated APP23 84.6/section) | Aβ deposition / Aβ plaques (in words) ([6]; versus untreated APP23 mice) | BACE1 protein level (in words) [7] | BACE1 enzymatic activity level (in words) ([8]; 12 months old APP23 mice, frontal cortex extracts, versus untreated APP23 mice) | decrease in BACE1 activity levels ([8]; both the in vitro and in vivo studies, APP23 mice)
1 | did not perturb activity | ZVAD (Ome)-CH2F | – | – | – | – | – | – | – | – | – | –
2 | – | O=C1CCC(N2C(=O)c3ccccc3C2=O)C(=O)N1 (centres unmarked) [Thalidomide] | significant reduction | tolerated | 400-800 mg/daily | alleviated | decreased neuronal loss | 3.91 /section | reduced; also recorded: fewer Aβ plaques | reduced | reduced | 42%
